Values joined by “and” are separate entries in the source; they are usually repeats but may differ in a detail not shown here. Identical values can stand only once. Active and inactive are the calls of the source. No rule for the calls is given here.
System: M. tuberculosis H37Rv growth inhibition with meropenem
Assay: H37Rv growth inhibition with and without meropenem, dose response, set 2 (AID 504703);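 also: growth ran 7 days at 37 °C then overnight with Alamar Blue before reading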
[1] = M. tuberculosis H37Rv growth inhibition, measured here: IC50 without meropenem
[2] = M. tuberculosis H37Rv growth inhibition, measured here: IC90 without meropenem
[3] = measured here: IC90 with meropenem

| SMILES | IC50 [1] | IC90 [2] [µM] | IC90 [3] [µM] | IC50 |
| --- | --- | --- | --- | --- |
| COc1ccc2c(c1)cc(C)n2-c1ccccc1 | > 25 µM | > 25 | > 25 | – |
| COC(=O)c1sc(-c2ccc(C(C)(C)C)cc2)cc1NC(=O)CCC(=O)O | 13.5 µM and 9.45 µM | > 25 | > 25 | 7.32 µM (inactive) |
| Cc1c(OCc2ccc(C(=O)O)cc2)ccc2c(-c3ccccc3)cc(=O)oc12 | > 25 µM | > 25 | > 25 | – |
| CCOc1ccc2[nH]cc(C(=O)OC)c2c1 | > 25 µM | > 25 | > 25 | > 25 µM (inactive) |
| CCOc1ccc2nc(NC(=O)Cc3ccc(OC)cc3)sc2c1 | > 25 µM | > 25 | – | – |
| N/C(=N\c1nc2ccccc2o1)NC(=O)c1ccccc1F | > 25 µM | > 25 | – | – |
| CC(Oc1ccc(Cl)cc1)C(=O)Nc1nc2ccccc2s1 (stereo not drawn) | > 25 µM | > 25 | – | – |
| Cc1cccc(C)c1OCC(=O)Nc1nc2ccc(Cl)cc2s1 | > 25 µM | > 25 | – | – |
| CN(NC(=O)c1c(Cl)cccc1Cl)c1cccc(Cl)n1 | > 25 µM | > 25 | > 25 | 15.5 µM (inactive) |
| CC(=O)c1c(C)n(-c2cccc(Cl)c2)c2ccc(O)cc12 | > 25 µM | > 25 | – | – |
| CC(=O)c1c(C)n(-c2ccccc2)c2ccccc12 | > 25 µM | > 25 | > 25 | 11.6 µM (inactive) |
| COc1ccc2nc(NC(=O)COc3c(C)cc(C)cc3C)sc2c1 | > 25 µM | > 25 | – | – |
| O=C(COc1ccccc1)Nc1nc2ccccc2s1 | > 25 µM | > 25 | – | – |
| O=C(OC(C(=O)Nc1ccc(Cl)cc1C(F)(F)F)c1ccccc1)C1=COCCO1 (stereo not drawn) | 16.9 µM | > 25 | > 25 | – |
| COc1ccc2oc(C(=O)Nc3nc4ccccc4[nH]3)c(C)c2c1 | – | > 25 | > 25 | 10.5 µM (inactive) |
| CCOc1ccc2c(c1)c(C(C)=O)c(C)n2-c1ccccc1Cl | > 25 µM | > 25 | > 25 | 13.6 µM (inactive) |
| Cc1ccc(C(C)C)c(OCC(=O)Nc2nc3ccccc3s2)c1 | > 25 µM | > 25 | – | – |
| CCOc1ccc2nc(NC(=O)COc3ccc(OC)cc3)sc2c1 | > 25 µM | > 25 | – | – |
| CC(=O)c1c(C)n(-c2ccccc2C)c2ccc(O)cc12 | > 25 µM | > 25 | – | – |
| Cc1ccc(OCC(=O)Nc2cccc3ncccc23)c(C)c1 | > 25 µM | > 25 | – | – |

| SMILES | IC50 [1] | IC90 [2] [µM] | IC90 [3] [µM] | IC50 |
| --- | --- | --- | --- | --- |
| Cc1cccc(C)c1OCC(=O)Nc1nc2ccccc2s1 | > 25 µM | > 25 | – | – |
| CCOc1ccc2nc(NC(=O)C3(c4ccccc4)CCCC3)sc2c1 | 2.08 µM | 8.95 | 4.16 | 1.2 µM (inactive) |
| N/C(=N\c1nc2ccccc2o1)NC(=O)C1CC1 | > 25 µM | > 25 | – | – |
| CC(=O)c1c(C)n(-c2ccccc2)c2ccc(OC(C)C)cc12 | > 25 µM | > 25 | – | – |
| CCOc1ccc2c(c1)cc(C)n2-c1ccccc1 | > 25 µM | > 25 | > 25 | 11.5 µM (inactive) |
| COC(=O)c1ccc2nc(NC(=O)COc3ccccc3)sc2c1 | > 25 µM | > 25 | – | – |
| COc1ccc2c(c1)c(C(C)=O)c(C)n2-c1ccccc1 | > 25 µM | > 25 | > 18.8 | – |
| COc1cccc(NC(=O)C2CC2)c1 | > 25 µM | > 25 | > 25 | – |
| O=C(CSc1n[nH]c(=O)n1C1CC1)c1ccc2c(c1)OCCO2 | 10.8 µM | > 25 | > 25 | 4.57 µM (inactive) |
| N/C(=N\c1nc2ccccc2o1)NC(=O)COc1ccc2ccccc2c1 | > 25 µM | > 25 | – | – |
| COC(=O)c1c(C)n(-c2ccccc2)c2ccc(O)cc12 | > 25 µM | > 25 | > 18.8 | 8.43 µM (inactive) and > 12.5 µM (inactive) |
| Cc1cc2cc(F)ccc2[nH]1 | > 25 µM | > 25 | – | – |
| CCOc1ccc2nc(NC(=O)COc3ccccc3)sc2c1 | > 25 µM | > 25 | – | – |
| N/C(=N\c1nc2ccccc2o1)NC(=O)c1ccccc1 | > 25 µM | > 25 | – | – |
| O=C(Nc1ccccc1)Nc1csc2ccccc12 | 5.5 µM and 1.82 µM | > 25 | > 25 | – |
| Cc1ccc(OCC(=O)Nc2nnn(C)n2)c(C)c1 | > 25 µM | > 25 | – | – |
| Cc1cc2cc(Cl)ccc2[nH]1 | > 25 µM | > 25 | – | – |
| O=C(Cc1ccccc1Cl)Nc1nc2ccccc2[nH]1 | > 18.8 µM and 16.4 µM | > 25 | > 25 | 18.9 µM (inactive) |
| Cc1ccccc1C(=O)Nc1nc2ccccc2[nH]1 | 17.9 µM | > 25 | > 25 | 8.75 µM (inactive) |
| CCC(CC)c1nnc(NC(=O)c2ccc(N3CCCCC3)c([N+](=O)[O-])c2)s1 | > 25 µM | > 25 | – | – |

| SMILES | IC50 [1] | IC90 [2] [µM] | IC90 [3] [µM] | IC50 |
| --- | --- | --- | --- | --- |
| CC(=O)Nc1ccc2nc(NC(=O)Cc3ccccc3)sc2c1 | > 25 µM | > 25 | – | – |
| O=C(COc1ccc(Cl)cc1)Nc1nc2ccc(F)cc2s1 | > 25 µM | > 25 | – | – |
| N/C(=N\c1nc2ccccc2o1)NC(=O)c1ccccc1Br | 8.26 µM | > 25 | > 25 | – |
| Cc1ccc(OCC(=O)Nc2cccc3ccccc23)c(C)c1 | > 25 µM | > 25 | > 25 | 20.5 µM (inactive) |
| CCOc1ccc2c(c1)c(C(C)=O)c(C)n2-c1ccccc1C | 23.2 µM | > 25 | 12.1 | – |
| CCOC(=O)c1c(C)[nH]c2ccccc12 | > 25 µM | > 25 | – | – |
| O=C(Cc1csc(-c2ccccc2F)n1)Nc1nc2ccccc2[nH]1 | > 25 µM | > 25 | – | – |
| O=C(COC(=O)C1=COCCO1)Nc1ccc2c(c1)OCO2 | > 25 µM | > 25 | > 25 | – |
| Cc1ccccc1OCC(=O)Nc1nnn(C)n1 | > 25 µM | > 25 | – | – |
| CCOc1ccc2nc(NC(=O)COc3ccc(F)cc3)sc2c1 | > 25 µM | > 25 | – | – |
| Cc1cc2cc(Cl)ccc2n1-c1ccccc1 | > 25 µM | > 25 | – | – |
| Cc1ccc(OCC(=O)Nc2ccc3c4c(cccc24)CC3)c(C)c1 | > 25 µM | > 25 | > 25 | – |
| COc1ccc(C(=O)Nc2ccc3nc(N4CCCCC4)cc(C)c3c2)c(OC)c1 | > 25 µM | > 25 | > 25 | 17.6 µM (inactive) |
| Cc1cc2ccccc2[nH]1 | > 25 µM | > 25 | – | – |
| COC(=O)c1c(C)[nH]c2ccc(Cl)cc12 | > 25 µM | > 25 | – | – |
| CC(C)Cn1c2c(c(O)c(C(=O)Nc3nccs3)c1=O)CCCC2 | > 25 µM | > 25 | – | – |
| c1ccc(OCc2nnc(-c3ccccc3)o2)cc1 | > 18.8 µM and 15.3 µM | > 25 | > 25 | 15 µM (inactive) |
| CCOC(=O)COc1nc(-c2ccc(Cl)cc2)cc(-c2ccco2)c1C#N | > 25 µM | > 25 | > 25 | – |
| Cc1ccc(OCC(=O)Nc2nc3ccc(F)cc3s2)cc1 | > 25 µM | > 25 | – | – |

From PubChem BioAssay AID504703 (Southern Research Specialized Biocontainment Screening …, 2011)
